From the NIST ThermoML archive (doi:10.1021/je049930e)

Assay: wn = mass fraction of the nth substance listed
Conditions: Liquid, Vibrating tube method

CC(=O)c1ccccc1 [acetophenone] + CCCCCCCCO
mass density [kg/m3]
Conditions | 100 kPa | 10000 kPa | 15000 kPa | 20000 kPa | 25000 kPa | 30000 kPa | 35000 kPa | 40000 kPa | 45000 kPa | 50000 kPa
298.15 K, w2 = 0.1075 | 996 | 1001.7 | 1004.5 | 1007.2 | 1009.8 | 1012.3 | 1014.9 | 1017.3 | 1019.7 | 1022.1
298.15 K, w2 = 0.2132 | 971.2 | 977 | 979.8 | 982.5 | 985.2 | 987.7 | 990.3 | 992.8 | 995.1 | 997.5
298.15 K, w2 = 0.3172 | 947.9 | 953.8 | 956.6 | 959.4 | 962 | 964.7 | 967.2 | 969.7 | 972.2 | 974.6
298.15 K, w2 = 0.4195 | 926.2 | 932.2 | 935.1 | 937.9 | 940.6 | 943.2 | 945.8 | 948.3 | 950.7 | 953.2
298.15 K, w2 = 0.5201 | 905.9 | 911.9 | 914.9 | 917.6 | 920.3 | 923 | 925.6 | 928.1 | 930.6 | 933
298.15 K, w2 = 0.6192 | 886.6 | 892.7 | 895.6 | 898.4 | 901.2 | 903.8 | 906.4 | 909 | 911.4 | 913.8
298.15 K, w2 = 0.7166 | 868.6 | 874.7 | 877.6 | 880.4 | 883.2 | 885.9 | 888.5 | 891 | 893.5 | 895.9
298.15 K, w2 = 0.8126 | 851.8 | 857.9 | 860.9 | 863.7 | 866.5 | 869.2 | 871.8 | 874.2 | 876.8 | 879.2
298.15 K, w2 = 0.907 | 836 | 842.1 | 845.1 | 848 | 850.7 | 853.4 | 855.9 | 858.5 | 861 | 863.3
318.15 K, w2 = 0.1075 | 978.9 | 985.3 | 988.3 | 991.3 | 994.1 | 997 | 999.5 | 1002.2 | 1004.8 | 1007.3
318.15 K, w2 = 0.2132 | 954.5 | 960.9 | 964 | 967 | 969.9 | 972.7 | 975.4 | 978 | 980.7 | 983.2
318.15 K, w2 = 0.3172 | 931.3 | 937.8 | 940.9 | 943.9 | 946.9 | 949.7 | 952.4 | 955.1 | 957.7 | 960.3
318.15 K, w2 = 0.4195 | 910 | 916.6 | 919.7 | 922.8 | 925.7 | 928.6 | 931.4 | 934 | 936.8 | 939.3
318.15 K, w2 = 0.5201 | 890 | 896.7 | 899.8 | 902.9 | 905.9 | 908.7 | 911.5 | 914.2 | 916.9 | 919.5
318.15 K, w2 = 0.6192 | 871.1 | 877.8 | 881.1 | 884.1 | 887.1 | 890 | 892.7 | 895.4 | 898.1 | 900.7
318.15 K, w2 = 0.7166 | 853.4 | 860.2 | 863.3 | 866.4 | 869.5 | 872.4 | 875.2 | 877.9 | 880.5 | 883.1
318.15 K, w2 = 0.8126 | 837 | 843.9 | 847 | 850.2 | 853.2 | 856 | 858.9 | 861.6 | 864.3 | 866.8
318.15 K, w2 = 0.907 | 821.6 | 828.3 | 831.6 | 834.7 | 837.7 | 840.6 | 843.4 | 846.1 | 848.8 | 851.3
348.15 K, w2 = 0.1075 | 952.5 | 959.7 | 963.2 | 966.6 | 969.9 | 973.1 | 976.1 | 979.2 | 982 | 984.8
348.15 K, w2 = 0.2132 | 928.4 | 935.9 | 939.4 | 942.8 | 946.1 | 949.2 | 952.3 | 955.3 | 958.2 | 961
348.15 K, w2 = 0.3172 | 905.7 | 913.1 | 916.7 | 920.1 | 923.5 | 926.7 | 929.8 | 932.9 | 935.9 | 938.6
348.15 K, w2 = 0.4195 | 884.7 | 892.4 | 896 | 899.5 | 902.9 | 906.2 | 909.3 | 912.3 | 915.3 | 918.2
348.15 K, w2 = 0.5201 | 865.1 | 872.8 | 876.5 | 880 | 883.4 | 886.6 | 889.6 | 892.8 | 895.9 | 898.7
348.15 K, w2 = 0.6192 | 846.9 | 854.6 | 858.3 | 861.8 | 865.3 | 868.5 | 871.7 | 874.8 | 877.8 | 880.7
348.15 K, w2 = 0.7166 | 829.6 | 837.4 | 841.1 | 844.6 | 848 | 851.3 | 854.5 | 857.6 | 860.5 | 863.4
348.15 K, w2 = 0.8126 | 813.7 | 821.5 | 825.2 | 828.7 | 832.1 | 835.4 | 838.6 | 841.7 | 844.6 | 847.5
348.15 K, w2 = 0.907 | 798.4 | 806.4 | 810.2 | 813.8 | 817.2 | 820.4 | 823.6 | 826.7 | 829.7 | 832.5
